Reference: patent US9701689B2, “Substituted pyridines and pyridazines as CCR10 receptor inhibitors” (KYOWA HAKKO KIRIN CO., LTD., priority 2012, dated 2017)

Target: T1, human CCR10 (Homo sapiens, UniProt P46092)
T1 construct: expressed in transfected cells; host or cells: KJMGER8 cells (Namalwa cell-derived line), beta-estradiol-induced; hCCR10G16 cells
T1 sequence (P46092 1-362): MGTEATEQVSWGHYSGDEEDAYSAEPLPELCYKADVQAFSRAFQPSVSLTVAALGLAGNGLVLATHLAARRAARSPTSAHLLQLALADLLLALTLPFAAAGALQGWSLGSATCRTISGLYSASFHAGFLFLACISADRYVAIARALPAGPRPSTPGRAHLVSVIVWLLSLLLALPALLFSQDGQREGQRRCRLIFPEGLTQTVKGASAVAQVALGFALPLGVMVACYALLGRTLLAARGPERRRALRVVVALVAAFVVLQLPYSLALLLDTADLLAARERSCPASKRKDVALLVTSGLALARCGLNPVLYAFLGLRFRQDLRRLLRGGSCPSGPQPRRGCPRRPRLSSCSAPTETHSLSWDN
Experiment: CCR10 antagonistic effect: calcium assay of human CCR10 (CTACK-induced increase of intracellular calcium in hCCR10G16 cells)
Format: cell-based
Conditions: at a concentration of not more than 1000 nmol/L; human CCR10-expressing hCCR10G16 cells, 300 nmol/L CTACK added; read-out: inhibition of increase in the calcium ion concentration
Summary of the method: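 Inhibition of CTACK-evoked calcium flux (max minus min Fluo-3 fluorescence over ~5 min, FDSS) was calculated against control in β-estradiol-induced human CCR10/Gα16 KJMGER8 cells, after 30 min compound preincubation at 37 °C; CTACK added from a 300 nmol/L solution.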

Row | inhibition at up to 1 µM [%] | SMILES
1 | ≥ 50 | Cc1c(S(=O)(=O)Nc2ccon2)ncc(C(=O)N2CCC(c3ccc(F)cc3)CC2)c1Nc1cc(Cl)ccc1F [Compound 271, 4-(5-chloro-2-fluorophenylamino)-5-[4-(4-fluorophenyl)piperidine-1-carbonyl]-N-(isoxazol-3-yl)-3-methylpyridine-2-sulfonamide]
2 | ≥ 50 | Cc1c(S(=O)(=O)Nc2ccon2)ncc(C(=O)N2CCC(c3ccc(F)cc3)CC2)c1Nc1cccc(F)c1Cl [Compound 272, 4-(2-chloro-3-fluorophenylamino)-5-[4-(4-fluorophenyl)piperidine-1-carbonyl]-N-(isoxazol-3-yl)-3-methylpyridine-2-sulfonamide]
3 | ≥ 50 | Cc1c(S(=O)(=O)Nc2ccon2)ncc(C(=O)N2CCC(c3ccc(F)cc3)CC2)c1Nc1ccc(F)cc1Cl [Compound 273, 4-(2-chloro-4-fluorophenylamino)-5-[4-(4-fluorophenyl)piperidine-1-carbonyl]-N-(isoxazol-3-yl)-3-methylpyridine-2-sulfonamide]
4 | ≥ 50 | Cc1c(S(=O)(=O)Nc2ccon2)ncc(C(=O)N2CCC(c3ccc(F)cc3)CC2)c1Nc1cc(F)ccc1Cl [Compound 274, 4-(2-chloro-5-fluorophenylamino)-5-[4-(4-fluorophenyl)piperidine-1-carbonyl]-N-(isoxazol-3-yl)-3-methylpyridine-2-sulfonamide]
5 | ≥ 50 | Cc1c(S(=O)(=O)Nc2ccon2)ncc(C(=O)N2CCC(c3ccc(F)cc3)CC2)c1Nc1cc(F)cc(F)c1F [Compound 275, 5-[4-(4-fluorophenyl)piperidine-1-carbonyl]-N-(isoxazol-3-yl)-3-methyl-4-(2,3,5-trifluorophenylamino)pyridine-2-sulfonamide]
6 | ≥ 50 | Cc1cccc(Nc2c(C(=O)N3CCC(c4ccc(F)cc4)CC3)cnc(S(=O)(=O)Nc3cc(C)ns3)c2C)c1 [Compound 276, 5-[4-(4-fluorophenyl)piperidine-1-carbonyl]-3-methyl-N-(3-methylisothiazol-5-yl)-4-(m-tolylamino)pyridine-2-sulfonamide]
7 | ≥ 50 | Cc1cc(NS(=O)(=O)c2ncc(C(=O)N3CCC(c4ccc(F)cc4)CC3)c(Nc3ccccc3)c2C)sn1 [Compound 277, 5-[4-(4-fluorophenyl)piperidine-1-carbonyl]-3-methyl-N-(3-methylisothiazol-5-yl)-4-(phenylamino)pyridine-2-sulfonamide]
8 | ≥ 50 | NS(=O)(=O)c1ncc(C(=O)N2CCN(c3ccc(F)cc3)C(=O)C2)c(NC2(c3ccccc3)CC2)c1Cl [Compound 278, 3-chloro-5-[4-(4-fluorophenyl)-3-oxopiperazine-1-carbonyl]-4-(1-phenylcyclopropylamino)pyridine-2-sulfonamide]
9 | ≥ 50 | Cc1c(S(=O)(=O)Nc2ccon2)ncc(C(=O)N2CCC(c3ccc(F)cc3)CC2)c1Nc1ccc(Cl)c(Cl)c1 [Compound 279, 4-(3,4-dichlorophenylamino)-5-[4-(4-fluorophenyl)piperidine-1-carbonyl]-N-(isoxazol-3-yl)-3-methylpyridine-2-sulfonamide]
10 | ≥ 50 | Cc1c(S(=O)(=O)Nc2ccon2)ncc(C(=O)N2CCC(c3ccc(F)cc3)CC2)c1Nc1ccc(Cl)cc1Cl [Compound 280, 4-(2,4-dichlorophenylamino)-5-[4-(4-fluorophenyl)piperidine-1-carbonyl]-N-(isoxazol-3-yl)-3-methylpyridine-2-sulfonamide]
11 | ≥ 50 | Cc1c(S(=O)(=O)Nc2ccon2)ncc(C(=O)N2CCC(c3ccc(F)cc3)CC2)c1Nc1cc(Cl)ccc1Cl [Compound 281, 4-(2,5-dichlorophenylamino)-5-[4-(4-fluorophenyl)piperidine-1-carbonyl]-N-(isoxazol-3-yl)-3-methylpyridine-2-sulfonamide]
12 | ≥ 50 | CN(Nc1c(C(=O)N2CCC(c3ccc(F)cc3)CC2)cnc(S(N)(=O)=O)c1Cl)c1ccccc1 [Compound 282, 3-chloro-5-[4-(4-fluorophenyl)piperidine-1-carbonyl]-4-(2-methyl-2-phenylhydrazinyl)pyridine-2-sulfonamide]
13 | ≥ 50 | NS(=O)(=O)c1ncc(C(=O)N2CC(c3ccc(F)cc3)C2)c(Nc2cccc(Cl)c2)c1Cl [Compound 283, 3-chloro-4-(3-chlorophenylamino)-5-[3-(4-fluorophenyl)azetidine-1-carbonyl]pyridine-2-sulfonamide]
14 | ≥ 50 | Cc1c(S(N)(=O)=O)ncc(C(=O)N2CC(c3ccc(F)cc3)C2)c1NCc1ccccc1 [Compound 284, 4-(benzylamino)-5-[3-(4-fluorophenyl)azetidine-1-carbonyl]-3-methylpyridine-2-sulfonamide]
15 | ≥ 50 | Cc1c(S(N)(=O)=O)ncc(C(=O)N2CC(c3ccc(F)cc3)C2)c1Nc1cccc(Cl)c1 [Compound 285, 4-(3-chlorophenylamino)-5-[3-(4-fluorophenyl)azetidine-1-carbonyl]-3-methylpyridine-2-sulfonamide]
16 | ≥ 50 | CCc1c(S(=O)(=O)Nc2ccon2)ncc(C(=O)N2CCC(c3ccc(F)cc3)CC2)c1Nc1ccccc1C [Compound 287, 3-ethyl-5-[4-(4-fluorophenyl)piperidine-1-carbonyl]-N-(isoxazol-3-yl)-4-(o-tolylamino)pyridine-2-sulfonamide]
17 | ≥ 50 | N#Cc1ccc(C#N)c(Nc2c(C(=O)N3CCC(c4ccc(F)cc4)CC3)cnc(S(N)(=O)=O)c2Cl)c1 [Compound 288, 3-chloro-4-(2,5-dicyanophenylamino)-5-[4-(4-fluorophenyl)piperidine-1-carbonyl]pyridine-2-sulfonamide]
18 | ≥ 50 | Cc1ccc(Oc2c(C(=O)N3CCC(c4ccc(F)cc4)CC3)cnc(S(N)(=O)=O)c2C)cc1 [Compound 289, 5-[4-(4-fluorophenyl)piperidine-1-carbonyl]-3-methyl-4-(p-tolyloxy)pyridine-2-sulfonamide]
19 | ≥ 50 | N#Cc1ccc(Cl)cc1Nc1c(C(=O)N2CCC(c3ccc(F)cc3)CC2)cnc(S(N)(=O)=O)c1Cl [Compound 290, 3-chloro-4-(5-chloro-2-cyanophenylamino)-5-[4-(4-fluorophenyl)piperidine-1-carbonyl]pyridine-2-sulfonamide]
20 | ≥ 50 | Cc1ccccc1Nc1c(C(=O)N2CC(c3ccc(F)cc3)C2)cnc(S(=O)(=O)Nc2ccon2)c1C [Compound 292, 5-[3-(4-fluorophenyl)azetidine-1-carbonyl]-N-(isoxazol-3-yl)-3-methyl-4-(o-tolylamino)pyridine-2-sulfonamide]
21 | ≥ 50 | CCc1c(S(=O)(=O)Nc2ccon2)ncc(C(=O)N2CCC(c3ccc(F)cc3)CC2)c1Nc1cccc(F)c1C [Compound 294, 3-ethyl-4-(3-fluoro-2-methylphenylamino)-5-[4-(4-fluorophenyl)piperidine-1-carbonyl]-N-(isoxazol-3-yl)pyridine-2-sulfonamide]
22 | ≥ 50 | COC1(c2ccc(F)cc2)CCN(C(=O)c2cnc(S(N)(=O)=O)c(Cl)c2NC2(c3ccccc3)CC2)CC1 [Compound 295, 3-chloro-5-[4-(4-fluorophenyl)-4-methoxypiperidine-1-carbonyl]-4-(1-phenylcyclopropylamino)pyridine-2-sulfonamide]
